Measurements from ChEMBL document CHEMBL5696442, “Discovery of type II inhibitors of TGFβ-activated kinase 1 (TAK1) and mitogen-activated protein kinase kinase kinase kinase 2 (MAP4K2)” (J Med Chem, 2015).
Calls of active or inactive are those of the source. The calls are words filed in the database; no cut-off is given here.

Columns and labels:
[1] = target: Serine/threonine-protein kinase 16 (Homo sapiens) (UniProt O75716); assay: Inhibition of STK16 (unknown origin) at 10 uM by Ambit Kinomescan binding assay
Chain of Serine/threonine-protein kinase 16 (Homo sapiens) (O75716 whole entry): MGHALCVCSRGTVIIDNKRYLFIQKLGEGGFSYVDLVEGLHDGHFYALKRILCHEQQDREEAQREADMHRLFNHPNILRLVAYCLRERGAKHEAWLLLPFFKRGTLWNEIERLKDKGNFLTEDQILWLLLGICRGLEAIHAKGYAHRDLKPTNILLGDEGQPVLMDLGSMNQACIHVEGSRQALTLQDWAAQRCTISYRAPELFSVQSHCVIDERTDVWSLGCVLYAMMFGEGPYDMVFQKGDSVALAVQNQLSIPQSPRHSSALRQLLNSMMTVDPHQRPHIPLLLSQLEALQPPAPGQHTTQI

[2] = target: Tyrosine-protein kinase Lyn (Homo sapiens, UniProt P07948); assay: Inhibition of LYN Lys1 labeling site in human A-375 cells at 0.05 uM by KiNativ Profiling analysis relative to control; assay type: cell-based
Chain of Tyrosine-protein kinase Lyn (P07948 2-512 limits assumed): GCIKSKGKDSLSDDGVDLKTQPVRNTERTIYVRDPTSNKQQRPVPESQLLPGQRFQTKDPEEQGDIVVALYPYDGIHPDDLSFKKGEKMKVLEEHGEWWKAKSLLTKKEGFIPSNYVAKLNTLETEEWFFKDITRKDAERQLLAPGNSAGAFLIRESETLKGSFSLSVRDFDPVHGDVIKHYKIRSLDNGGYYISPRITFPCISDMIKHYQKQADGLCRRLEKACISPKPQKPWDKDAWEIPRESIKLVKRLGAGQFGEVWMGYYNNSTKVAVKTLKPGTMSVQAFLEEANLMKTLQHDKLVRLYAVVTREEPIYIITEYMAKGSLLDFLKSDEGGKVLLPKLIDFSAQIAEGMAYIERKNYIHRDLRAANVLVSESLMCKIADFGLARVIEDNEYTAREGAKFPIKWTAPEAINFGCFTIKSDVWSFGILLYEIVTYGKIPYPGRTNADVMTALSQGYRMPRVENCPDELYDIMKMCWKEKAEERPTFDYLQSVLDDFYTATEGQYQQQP

[3] = target: Ribosomal protein S6 kinase alpha-3 (Homo sapiens) (UniProt P51812); assay: Inhibition of RSK2 Domain 2 K2 labeling site harbouring DLKPSNILYVDESGNPESIR in human Huh-7 cells at 1 uM by KiNativ Profiling analysis relative to control; assay type: cell-based
Chain of Ribosomal protein S6 kinase alpha-3 (Homo sapiens) (P51812 whole entry, the tested form may be a part): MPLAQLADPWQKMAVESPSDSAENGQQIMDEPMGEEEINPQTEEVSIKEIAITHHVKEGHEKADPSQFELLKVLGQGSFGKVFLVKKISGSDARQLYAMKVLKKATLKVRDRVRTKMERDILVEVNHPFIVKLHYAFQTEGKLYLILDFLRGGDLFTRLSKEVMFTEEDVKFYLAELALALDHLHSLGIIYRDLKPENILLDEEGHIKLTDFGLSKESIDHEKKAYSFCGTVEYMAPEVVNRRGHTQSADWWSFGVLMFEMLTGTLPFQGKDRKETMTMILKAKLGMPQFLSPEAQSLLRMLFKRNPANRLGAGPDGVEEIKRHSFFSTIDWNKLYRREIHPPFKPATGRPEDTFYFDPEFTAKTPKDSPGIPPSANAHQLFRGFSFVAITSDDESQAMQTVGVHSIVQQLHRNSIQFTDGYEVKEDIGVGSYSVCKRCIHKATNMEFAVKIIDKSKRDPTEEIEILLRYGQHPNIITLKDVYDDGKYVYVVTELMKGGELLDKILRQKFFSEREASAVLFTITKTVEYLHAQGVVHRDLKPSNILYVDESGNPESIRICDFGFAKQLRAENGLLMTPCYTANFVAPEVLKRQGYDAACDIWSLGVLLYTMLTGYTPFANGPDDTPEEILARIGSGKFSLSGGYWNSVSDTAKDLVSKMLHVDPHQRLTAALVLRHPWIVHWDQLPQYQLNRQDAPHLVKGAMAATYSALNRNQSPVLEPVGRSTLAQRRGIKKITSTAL

[4] = target: T1, Serine/threonine-protein kinase Sgk3 (Homo sapiens) (UniProt Q96BR1); assay: Inhibition of SGK3 K1 labeling site in human Huh-7 cells at 1 uM by KiNativ Profiling analysis relative to control; assay type: cell-based
T1 sequence (whole entry): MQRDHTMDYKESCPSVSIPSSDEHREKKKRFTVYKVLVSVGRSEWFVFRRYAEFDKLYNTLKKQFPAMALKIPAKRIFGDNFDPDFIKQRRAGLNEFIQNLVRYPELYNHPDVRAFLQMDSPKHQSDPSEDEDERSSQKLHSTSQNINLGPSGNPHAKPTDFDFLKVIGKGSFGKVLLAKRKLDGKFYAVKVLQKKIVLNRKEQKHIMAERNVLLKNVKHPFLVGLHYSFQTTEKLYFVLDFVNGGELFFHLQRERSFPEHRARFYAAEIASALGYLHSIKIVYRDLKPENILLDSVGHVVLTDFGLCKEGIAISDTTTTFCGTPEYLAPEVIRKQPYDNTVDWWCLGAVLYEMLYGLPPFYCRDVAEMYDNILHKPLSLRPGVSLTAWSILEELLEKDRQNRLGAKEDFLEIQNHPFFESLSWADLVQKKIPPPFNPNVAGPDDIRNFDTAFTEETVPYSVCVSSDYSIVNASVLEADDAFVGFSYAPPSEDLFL

[5] = Inhibition of Wnk1/2/3 K2 labeling site in human Huh-7 cells at 1 uM by KiNativ Profiling analysis relative to control; conditions: condition cancer
[6] = target: 5'-AMP-activated protein kinase catalytic subunit alpha-2 (Homo sapiens) (UniProt P54646); assay: Inhibition of AMPK-alpha2 (unknown origin) at 1 uM by Ambit Kinomescan binding assay relative to control
Chain of 5'-AMP-activated protein kinase catalytic subunit alpha-2 (Homo sapiens) (P54646 whole entry, looked up): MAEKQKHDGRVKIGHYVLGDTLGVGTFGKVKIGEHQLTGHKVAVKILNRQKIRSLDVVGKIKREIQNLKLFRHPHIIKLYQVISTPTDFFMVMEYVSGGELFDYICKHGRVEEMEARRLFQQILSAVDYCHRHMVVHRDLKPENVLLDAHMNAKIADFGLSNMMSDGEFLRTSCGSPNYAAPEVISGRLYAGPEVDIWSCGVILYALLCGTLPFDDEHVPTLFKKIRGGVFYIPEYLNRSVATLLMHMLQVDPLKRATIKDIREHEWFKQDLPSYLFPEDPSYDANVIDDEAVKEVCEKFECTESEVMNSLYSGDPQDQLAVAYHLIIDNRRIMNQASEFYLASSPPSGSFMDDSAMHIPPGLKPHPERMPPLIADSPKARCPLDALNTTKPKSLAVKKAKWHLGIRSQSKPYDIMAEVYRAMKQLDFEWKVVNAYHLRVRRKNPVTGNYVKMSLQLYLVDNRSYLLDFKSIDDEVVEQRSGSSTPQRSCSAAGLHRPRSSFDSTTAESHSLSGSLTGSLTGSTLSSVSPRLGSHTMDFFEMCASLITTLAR

[7] = target: Serine/threonine-protein kinase 24 (Homo sapiens) (UniProt Q9Y6E0); assay: Inhibition of MST3 Lys2 labeling site harbouring IHRDIKAANVLLSEHGEVK in human A-375 cells at 5 uM by KiNativ Profiling analysis relative to control; assay type: cell-based
Chain of Serine/threonine-protein kinase 24 (Homo sapiens) (Q9Y6E0 whole entry, looked up): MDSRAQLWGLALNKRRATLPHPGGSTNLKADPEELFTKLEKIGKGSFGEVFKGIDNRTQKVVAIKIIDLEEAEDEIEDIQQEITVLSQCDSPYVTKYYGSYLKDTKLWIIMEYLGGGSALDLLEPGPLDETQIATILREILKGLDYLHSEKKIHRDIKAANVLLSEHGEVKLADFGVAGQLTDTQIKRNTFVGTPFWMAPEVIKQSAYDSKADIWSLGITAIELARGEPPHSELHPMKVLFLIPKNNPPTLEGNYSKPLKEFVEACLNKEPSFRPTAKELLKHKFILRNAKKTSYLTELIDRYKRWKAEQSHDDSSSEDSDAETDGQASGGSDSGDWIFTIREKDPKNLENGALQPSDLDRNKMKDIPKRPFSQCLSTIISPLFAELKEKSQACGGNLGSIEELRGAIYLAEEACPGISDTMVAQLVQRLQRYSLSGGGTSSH

[8] = target: T1, Serine/threonine-protein kinase Sgk3 (Homo sapiens); assay: Inhibition of SGK3 Lys1 labeling site in human A-375 cells at 5 uM by KiNativ Profiling analysis relative to control; assay type: cell-based
[9] = target: Mitogen-activated protein kinase 3 (Homo sapiens) (UniProt P27361); assay: Inhibition of ERK1 (unknown origin) at 1 uM by Ambit Kinomescan binding assay relative to control; values are per cent of control
Chain of Mitogen-activated protein kinase 3 (Homo sapiens) (P27361 whole entry): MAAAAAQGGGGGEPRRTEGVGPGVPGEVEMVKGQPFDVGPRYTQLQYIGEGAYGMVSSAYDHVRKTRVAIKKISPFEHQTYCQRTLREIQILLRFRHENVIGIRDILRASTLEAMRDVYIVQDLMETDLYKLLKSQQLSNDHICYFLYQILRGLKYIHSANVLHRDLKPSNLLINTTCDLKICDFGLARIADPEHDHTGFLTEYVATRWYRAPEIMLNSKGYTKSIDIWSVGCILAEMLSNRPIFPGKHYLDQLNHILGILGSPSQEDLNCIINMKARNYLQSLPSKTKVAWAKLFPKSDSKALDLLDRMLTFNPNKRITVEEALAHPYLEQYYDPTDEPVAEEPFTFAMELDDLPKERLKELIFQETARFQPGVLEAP

[10] = target: Maternal embryonic leucine zipper kinase (Homo sapiens) (UniProt Q14680); assay: Inhibition of MELK (unknown origin) at 1 uM by Ambit Kinomescan binding assay relative to control; values are per cent of control
Chain of Maternal embryonic leucine zipper kinase (Homo sapiens) (Q14680 whole entry, looked up): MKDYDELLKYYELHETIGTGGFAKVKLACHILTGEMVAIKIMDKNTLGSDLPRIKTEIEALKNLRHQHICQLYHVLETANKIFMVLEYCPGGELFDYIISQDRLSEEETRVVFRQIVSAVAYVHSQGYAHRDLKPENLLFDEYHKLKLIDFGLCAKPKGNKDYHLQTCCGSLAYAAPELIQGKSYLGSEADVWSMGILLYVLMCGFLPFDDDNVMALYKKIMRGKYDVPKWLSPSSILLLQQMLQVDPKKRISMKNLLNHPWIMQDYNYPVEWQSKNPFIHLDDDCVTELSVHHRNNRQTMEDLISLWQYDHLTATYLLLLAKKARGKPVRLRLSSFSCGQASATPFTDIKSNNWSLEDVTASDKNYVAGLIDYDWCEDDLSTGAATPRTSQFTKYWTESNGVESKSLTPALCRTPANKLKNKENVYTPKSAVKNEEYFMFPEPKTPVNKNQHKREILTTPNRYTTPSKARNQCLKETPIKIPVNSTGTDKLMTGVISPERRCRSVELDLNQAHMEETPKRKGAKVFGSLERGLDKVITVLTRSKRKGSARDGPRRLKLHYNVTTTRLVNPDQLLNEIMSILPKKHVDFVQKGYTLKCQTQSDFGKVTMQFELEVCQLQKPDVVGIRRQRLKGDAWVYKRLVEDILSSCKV

[11] = target: T2, Serine/threonine-protein kinase TAO1 (Homo sapiens) (UniProt Q7L7X3); assay: Inhibition of TAO1 Lys2 labeling site in human Huh-7 cell lysate at 1 uM by KiNativ Profiling analysis relative to control; assay type: subcellular
T2 sequence (whole entry): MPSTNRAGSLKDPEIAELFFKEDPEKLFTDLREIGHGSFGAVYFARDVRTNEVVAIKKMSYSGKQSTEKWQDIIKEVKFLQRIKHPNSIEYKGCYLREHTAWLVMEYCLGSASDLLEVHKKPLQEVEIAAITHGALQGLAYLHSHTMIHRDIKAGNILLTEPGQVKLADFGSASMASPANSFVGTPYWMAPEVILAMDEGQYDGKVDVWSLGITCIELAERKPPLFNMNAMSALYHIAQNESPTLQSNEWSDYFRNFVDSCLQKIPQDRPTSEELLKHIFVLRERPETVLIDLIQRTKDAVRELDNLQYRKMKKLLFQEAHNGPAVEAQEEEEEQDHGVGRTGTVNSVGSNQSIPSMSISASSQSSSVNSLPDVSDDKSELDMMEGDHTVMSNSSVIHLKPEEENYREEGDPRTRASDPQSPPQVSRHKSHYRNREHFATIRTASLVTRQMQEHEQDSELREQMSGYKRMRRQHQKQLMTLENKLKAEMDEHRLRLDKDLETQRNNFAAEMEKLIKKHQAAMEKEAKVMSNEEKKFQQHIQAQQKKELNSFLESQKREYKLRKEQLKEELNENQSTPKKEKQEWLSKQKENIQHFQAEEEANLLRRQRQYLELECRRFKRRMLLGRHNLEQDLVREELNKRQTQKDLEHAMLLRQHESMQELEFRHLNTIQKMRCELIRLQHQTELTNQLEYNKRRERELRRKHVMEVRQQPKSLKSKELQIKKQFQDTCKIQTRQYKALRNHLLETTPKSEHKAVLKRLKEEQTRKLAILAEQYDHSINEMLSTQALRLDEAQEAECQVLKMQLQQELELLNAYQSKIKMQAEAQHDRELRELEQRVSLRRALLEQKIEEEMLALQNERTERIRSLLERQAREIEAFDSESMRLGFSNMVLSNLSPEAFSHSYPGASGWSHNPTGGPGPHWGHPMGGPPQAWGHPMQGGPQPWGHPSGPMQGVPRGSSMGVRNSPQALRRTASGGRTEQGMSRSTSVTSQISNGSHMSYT

[12] = target: Serine/threonine-protein kinase 4 (Homo sapiens) (UniProt Q13043); assay: Inhibition of MST1 Lys1 labeling site harbouring AIHKETGQIVAIKQVPVESDLQEIIK in human Huh-7 cells at 1 uM by KiNativ Profiling analysis relative to control
Chain of Serine/threonine-protein kinase 4 (Homo sapiens) (Q13043 whole entry, looked up): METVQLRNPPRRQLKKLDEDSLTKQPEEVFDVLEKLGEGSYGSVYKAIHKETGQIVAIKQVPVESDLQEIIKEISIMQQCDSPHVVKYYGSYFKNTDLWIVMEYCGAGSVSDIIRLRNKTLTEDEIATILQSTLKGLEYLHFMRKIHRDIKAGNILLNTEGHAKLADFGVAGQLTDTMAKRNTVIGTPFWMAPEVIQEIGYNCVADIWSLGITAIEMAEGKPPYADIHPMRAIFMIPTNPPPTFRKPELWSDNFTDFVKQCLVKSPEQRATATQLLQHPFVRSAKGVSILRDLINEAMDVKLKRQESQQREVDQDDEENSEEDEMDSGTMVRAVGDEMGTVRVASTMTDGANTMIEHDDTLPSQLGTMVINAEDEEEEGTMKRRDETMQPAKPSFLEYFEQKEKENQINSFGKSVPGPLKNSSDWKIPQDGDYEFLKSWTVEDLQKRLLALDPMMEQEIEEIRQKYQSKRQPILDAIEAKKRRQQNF

[13] = target: Serine/threonine-protein kinase 4 (Homo sapiens) (UniProt Q13043); assay: Inhibition of MST1 Lys1 labeling site harbouring AIHKETGQIVAIKQVPVESDLQEIIK in human Huh-7 cell lysate at 1 uM by KiNativ Profiling analysis relative to control

CCN1CCN(Cc2ccc(NC(=O)c3ccc(C)c(Oc4ccnc5[nH]ccc45)c3)cc2C(F)(F)F)CC1
inhibition [1]: inactive | inhibition [2]: 71.9% | inhibition [3]: 11.5% | inhibition [4]: 8.8% | inhibition at 1 µM [5]: -17.1%

CCN1CCN(Cc2ccc(NC(=O)c3ccc(C)c(/C=C/c4cnc5[nH]ccc5c4OC)c3)cc2C(F)(F)F)CC1
inhibition [6]: 61% | inhibition [7]: -0.1% | inhibition [8]: -9.4% | residual activity [9]: 100% | residual activity [10]: 72%

CNc1cc(Oc2cc(C(=O)Nc3cc(N4CCN(C)CC4)cc(C(F)(F)F)c3)ccc2C)ncn1
inhibition [11]: -1.2% | inhibition [12]: 9.9% | inhibition [13]: 12.8%
